Reference: patent US20230192787A1, “DIAGNOSIS METHODS, DIAGNOSTIC AGENTS, AND THERAPEUTIC AGENTS AGAINST ALZHEIMER'S DISEASE AND FRONTOTEMPORAL LOBAR DEGENERATION, AND SCREENING METHODS FOR THESE AGENTS” (National University Corporation Tokyo Medical and Dental …, priority 2013, published 2023)
“Also recorded” adds a separate entry of the source.

What was measured:
5×FAD mice = experiment: In vivo two-photon imaging of dendritic spines after administering kinase inhibitors/activator; parameters: species or system mouse; conditions: 5×FAD mice (12 weeks old); for spine densities by morphological type (thin, mushroom, stubby) / spine dynamics: spine formation and stability: 36 hours and 60 hours after administration; for dendritic spine density (total spine density): layer 1 of retrosplenial cortex, 36 hours and 60 hours after administration by osmotic pump
Experimental: (§1) Two-photon imaging of dendritic spine was performed using a laser-scanning microscope system FV1000MPE2 (manufactured by Olympus Corporation) equipped with an upright microscope (BX61WI, manufactured by Olympus Corporation, a water-immersion objective lens (XLPlanN25xW; numerical aperture, 1.05), and a pulsed laser (MaiTai HP DeepSee, manufactured by Spectra Physics). In the imaging, EGFP was excited by light at a wavelength of 890 nm, and scanned in a range of 500 to 550 nm. Moreover, the scanned region for three-dimensional imaging was 100×100 μm (1 μm Z-axis steps, 1024×1024 pixels).
(§2) Additionally, two weeks before the imaging, adeno-associated virus 1 (AAV1)-EGFP with the synapsin 1 promoter (titer: 1×10^10 vector genomes/mL, 1 μL) was injected into the retrosplenial cortex (−2.0 mm anteroposterior and 0.6 mm mediolateral from the bregma, depth 1 mm) of mice under anesthesia with 2.5% isoflurane. Then, two weeks thereafter, the dendritic spines of the first layer (layer 1) of the cerebral cortex were observed through a thinned skull window according to the method described in “Yang, G. et al., Nat. Protoc., 2010, Vol. 5, pp. 201 to 208.”
Moreover, when the influence of kinase inhibition on dendritic spines was imaged, Alzet micro-osmotic pumps (model: 1003D, manufactured by Durect Corporation) filled with PBS/1% DMSO containing 1 μM Go6976 (manufactured by Calbiochem), 0.4 mM KN-93 (manufactured by Cayman Chemical), or 1 μM MLR1023 (manufactured by Glixx Laboratories) were implanted into mice under anesthesia with O2/isoflurane. […] Note that, regarding the PKC inhibitor Go6976, see Yan, Z. et al., Proc. Natl. Acad. Sci. U.S.A., 1999, Vol. 96, pp. 11607 to 11612. Regarding the CaMK inhibitor KN-93, see Galan, A. et al., Pain, 2004, Vol. 112, pp. 315 to 323. Regarding the Lyn activator MLR1023, see Saporito, M. S. et al., J. Pharmacol. Exp. Ther., 2012, Vol. 342, pp. 15 to 22.
In addition, the spine density, spine length, spine maximum diameter, and spine neck minimum diameter were measured from the obtained images using image analysis software IMARIS 7.2.2 (manufactured by Bitplane).
More concretely, the effect of the kinases on the synaptic pathology in the 5×FAD mice was analyzed by administering inhibitors and so forth against these kinases into the subarachnoid spaces of the mice. FIGS. 4 to 9 show the obtained result.

PGRN-KI mice [1] = experiment: Morris water maze test in FTLD model mice; assay type: in vivo, mouse; conditions: provided every day over 6 weeks from 6 weeks old
Experimental: In this test, the mice received a 60-second trial four times a day for 5 days. The time until each mouse reached the platform was measured.
Furthermore, the PGRN-KI mice were also subjected to six behavioral tests as in the case of Alzheimer's disease model mice described above. As a result, abnormalities regarding anxiety memory and anxiety-related memory were not observed in the open-field test, the light-dark box test, and the elevated plus maze test. […] Moreover, in the Morris water maze test, a statistically significant decrease was observed from the age of 3 months in the time during which the mice stayed in the target region or the number of times the mice passed through the target. […] Note that, in the Morris water maze test using the PGRN-KI mice, the mice received the 60-second trial four times a day for 5 days to learn the position of the platform (target region). […]
To be more specific, in accordance with the protocol shown in FIG. 21, a b-raf specific inhibitor vemurafenib or PBS was provided to the 6-week-old PGRN-KI mice every day over 6 weeks. Then, the behaviors of these mice were evaluated in the Morris water maze test and the fear-conditioning test. […]
Meanwhile, the therapeutic effect of thalidomide was also tested. […] The behaviors of these mice were evaluated by the above two tests. […]

PGRN-KI mice [2] = experiment: Fear-conditioning test in FTLD model mice; assay type: in vivo, mouse; conditions: provided every day over 6 weeks from 6 weeks old
Experimental: In this test, first, a mouse received a sound stimulus (65-dB white noise, 30 seconds) together with an electrical stimulus (0.4 mA, 2 seconds) on the foot. Then, after 24 hours, the mouse was measured for the frequency of the freezing reaction when the mouse received a sound stimulus but no electrical stimulus in the same chamber.
To be more specific, in accordance with the protocol shown in FIG. 21, a b-raf specific inhibitor vemurafenib or PBS was provided to the 6-week-old PGRN-KI mice every day over 6 weeks. Then, the behaviors of these mice were evaluated in the Morris water maze test and the fear-conditioning test. FIGS. 22 and 23 show the obtained result.
Meanwhile, the therapeutic effect of thalidomide was also tested. Note that thalidomide is known to suppress the TNF signal transduction pathway. Concretely, in accordance with the protocol shown in FIG. 24, thalidomide was administered to the PGRN-KI mice by peritoneal cavity injection every day for the same period as that in the protocol using the b-raf inhibitor. The behaviors of these mice were evaluated by the above two tests. FIGS. 25 and 26 show the obtained result.

[3] = system: phosphorylated b-RAF protein; experiment: Western blot of cerebral cortexes of treated PGRN-KI mice, phosphorylated b-RAF; assay type: in vivo, mouse
Experimental: (§3) FIG. 27 is a figure for illustrating the result of western blot analysis on the cerebral cortexes of wild-type mice (WT) and the PGRN-KI mice to which vemurafenib was administered. […] “Anti-p-Braf” and “Anti-p-PKC” respectively show the analysis result of phosphorylated b-RAF protein and the analysis result of phosphorylated PKC protein. […] The significant differences were evaluated based on the P-value calculated by Student's independent t-test.
(§4) FIG. 28 is a figure for illustrating the result of western blot analysis on the cerebral cortexes of the PGRN-KI mice to which thalidomide was administered. […] “Anti-p-Braf”, “Anti-Braf”, and “Anti-p-PKC” respectively show the analysis result of phosphorylated b-raf protein, the analysis result of b-raf protein, and the analysis result of phosphorylated PKC protein. […] Further, in the figure, one asterisk indicates p<0.05 in Student's independent t-test, and two asterisks indicate p<0.01 in Student's independent t-test.
(§5) Moreover, the cerebral cortexes of the PGRN-KI mice treated with the agent were analyzed by western blot.

[4] = system: phosphorylated PKC protein; experiment: Western blot of cerebral cortexes of treated PGRN-KI mice, phosphorylated PKC; assay type: in vivo, mouse
Experimental: as §3, §4, §5

PGRN-KI mice [5] = experiment: Immunohistological analysis of protein aggregation in brains of PGRN-KI mice; assay type: in vivo, mouse
Source text: To be more specific, as the first hypothesis, the aforementioned therapeutic effect by suppressing b-raf phosphorylation was presumably based on the elimination of protein aggregation in the nerve by vemurafenib or thalidomide. Accordingly, analyzed was the recovery effect of vemurafenib or thalidomide on the protein aggregation in the cerebral cortexes of the PGRN-KI mice.

PGRN-KI mice [6] = experiment: In vivo two-photon imaging of synaptic spines in retrosplenial cortex of PGRN-KI mice (recovery experiment); parameters: species or system mouse
Experimental: as §1, §2
A pharmacological recovery experiment was conducted on the PGRN-KI mice as follows. […]
In addition, analyzed was whether or not vemurafenib and/or tau knockdown enabled recovery of spine related phenotype. […]

Cc1cccc(Oc2cnc(O)nc2)c1 [MLR1023]
spine densities by morphological type (thin, mushroom, stubby) (5×FAD mice): the decreases were recovered | spine dynamics: spine formation and stability (5×FAD mice): had a therapeutic effect on the spine formation and stability | dendritic spine density (total spine density) (5×FAD mice): recovered the decrease of spines

COc1ccc(S(=O)(=O)N(CCO)c2ccccc2CN(C)C/C=C/c2ccc(Cl)cc2)cc1 [KN-93]
spine densities by morphological type (thin, mushroom, stubby) (5×FAD mice): the decreases were recovered | spine dynamics: spine formation and stability (5×FAD mice): had a therapeutic effect on the spine formation and stability | dendritic spine density (total spine density) (5×FAD mice): recovered the decrease of spines

CCCS(=O)(=O)Nc1ccc(F)c(C(=O)c2c[nH]c3ncc(-c4ccc(Cl)cc4)cc23)c1F [vemurafenib, N-{3-[5-(4-chlorophenyl)-1H-pyrrolo[2,3-b]pyridine-3-carbonyl]-2,4-difluorophenyl}propane-1-sulfonamide]
scores in the Morris water maze test (PGRN-KI mice [1]): remarkably recovered the scores in the two tests | scores in the fear-conditioning test (PGRN-KI mice [2]): remarkably recovered the scores in the two tests | b-raf phosphorylation [3]: suppressed the b-raf phosphorylation | PKC phosphorylation [4]: also suppressed the PKC phosphorylation | FUS and p62 inclusion (IB) (PGRN-KI mice [5]): no significant effect | transition of TDP43 into the cytoplasm (PGRN-KI mice [5]): no large change was observed | number of spines (PGRN-KI mice [6]; PGRN-KI mice (12 weeks old), vemurafenib 1.7 μM by osmotic pump for 3 days, shRNA imaged on Day 5): recovered the number of spines; also recorded: had a recovery effect on the number of spines | spine volume (PGRN-KI mice [6]; PGRN-KI mice, trend, not a statistically significant difference): decreased the spine volume

Cn1c2ccccc2c2c3c(c4c5ccccc5n(CCC#N)c4c21)CNC3=O [Go6976]
spine densities by morphological type (thin, mushroom, stubby) (5×FAD mice): the decreases were recovered; also recorded: increased | spine dynamics: spine formation and stability (5×FAD mice): enhanced the spine formation and stability | dendritic spine density (total spine density) (5×FAD mice): recovered the decrease of spines; also recorded: increased the total spine density

O=C1CCC(N2C(=O)c3ccccc3C2=O)C(=O)N1 (centres unmarked) [thalidomide]
scores in the Morris water maze test (PGRN-KI mice [1]): beneficial effects were finally verified | scores in the fear-conditioning test (PGRN-KI mice [2]): beneficial effects were finally verified | b-raf phosphorylation [3]: the b-raf phosphorylation was suppressing | PKC phosphorylation [4]: the PKC phosphorylation was not suppressed | FUS and p62 inclusion (IB) (PGRN-KI mice [5]): no significant effect | transition of TDP43 into the cytoplasm (PGRN-KI mice [5]): no large change was observed
